Read-outs that look alike come from different tables or passages of the source.
Molecular target: T1, human M2 receptor (Homo sapiens, UniProt P08172)
T1 sequence (P08172 1-466): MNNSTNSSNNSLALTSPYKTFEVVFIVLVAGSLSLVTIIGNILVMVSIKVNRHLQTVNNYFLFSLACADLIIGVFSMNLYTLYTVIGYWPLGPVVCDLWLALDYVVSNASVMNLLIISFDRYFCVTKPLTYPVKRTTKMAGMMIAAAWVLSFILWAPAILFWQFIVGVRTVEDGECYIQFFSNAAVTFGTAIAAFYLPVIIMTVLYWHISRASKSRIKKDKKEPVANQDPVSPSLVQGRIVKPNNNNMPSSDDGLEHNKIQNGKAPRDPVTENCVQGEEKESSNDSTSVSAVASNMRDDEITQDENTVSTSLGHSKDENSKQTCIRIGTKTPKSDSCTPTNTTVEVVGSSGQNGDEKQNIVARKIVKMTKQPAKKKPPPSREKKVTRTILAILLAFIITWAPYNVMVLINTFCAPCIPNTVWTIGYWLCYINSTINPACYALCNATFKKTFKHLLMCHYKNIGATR
Details: M2-GIRK1/4 reporter cells; for EC50: in some cases mean of two or more determinations; for Emax: read-out: Efficiency, boosting of the acetylcholine effect at EC20 acetylcholine concentration

[1] = Receptor activity EC50, allosteric potency at EC20 acetylcholine

| Structure (SMILES) | EC50 [1] [nM] | Emax [%] | Efficiency (boosting of the acetylcholine effect at EC20 acetylcholine concentration) [%] | EC50 (read-out: Receptor activity EC50, allosteric potency at EC20 acetylcholine) [nM] |
| --- | --- | --- | --- | --- |
| C[C@@H](COC(F)(F)F)NC(=O)c1cn(-c2c(F)cc(F)cc2Cl)c2nc(N3C[C@@H](O)CC3=O)ccc2c1=O [Example 421, 1-(2-Chloro-4,6-difluorophenyl)-7-[(4S)-4-hydroxy-2-oxopyrrolidin-1-yl]-4-oxo-N-[(2S)-1-(trifluoromethoxy)propan-2-yl]-1,4-dihydro-1,8-naphthyridine-3-carboxamide] | 48 | 100 | – | – |
| CC[C@H](NC(=O)c1cn(-c2c(F)cc(F)cc2Cl)c2nc(N3C(=O)CC[C@@H]3CO)ccc2c1=O)C(F)(F)F [Example 430, 1-(2-Chloro-4,6-difluorophenyl)-7-[(2R)-2-(hydroxymethyl)-5-oxopyrrolidin-1-yl]-4-oxo-N-[(2)-1,1,1-trifluorobutan-2-yl]-1,4-dihydro-1,8-naphthyridine-3-carboxamide] | 61 | 90 | – | – |
| CC[C@@H](NC(=O)c1cn(-c2ccc(F)cc2F)c2nc(N3CCC(C)C3=O)ccc2c1=O)C(F)(F)F (stereo partly drawn) [Example 431, 1-(2,4-Difluorophenyl)-7-[3-methyl-2-oxopyrrolidin-1-yl]-4-oxo-N-[(2R)-1,1,1-trifluorobutan-2-yl]-1,4-dihydro-1,8-naphthyridine-3-carboxamide] | 92 | 98 | – | – |
| CC[C@@H](NC(=O)c1cn(-c2ccc(F)cc2F)c2nc(N3C(=O)NCC3C)ccc2c1=O)C(F)(F)F (stereo partly drawn) [Example 434, 1-(2,4-Difluorophenyl)-7-[5-methyl-2-oxoimidazolidin-1-yl]-4-oxo-N-[(2R)-1,1,1-trifluorobutan-2-yl]-1,4-dihydro-1,8-naphthyridine-3-carboxamide] | 61 | 92 | – | – |
| O=C(N[C@H](C(F)F)C1CC1)c1cn(-c2c(F)cc(F)cc2F)c2nc(N3C[C@@H](O)CC3=O)ccc2c1=O [Example 435, N-[(1 S)-1-Cyclopropyl-2,2-difluoroethyl]-7-[(4S)-4-hydroxy-2-oxopyrrolidin-1-yl]-4-oxo-1-(2,4,6-trifluorophenyl)-1,4-dihydro-1,8-naphthyridine-3-carboxamide] | 84 | 100 | – | – |
| CC(NC(=O)c1cn(-c2c(F)cc(F)cc2F)c2nc(N3C[C@@H](O)[C@H](O)C3)ccc2c1=O)(C1CC1)C(F)(F)F (stereo partly drawn) [Example 443, N-[2-Cyclopropyl-1,1-trifluoropropan-2-yl]-7-[(3R,4R)-3,4-dihydroxypyrrolidin-1-yl]-4-oxo-1-(2,4,6-trifluorophenyl)-1,4-dihydro-1,8-naphthyridine-3-carboxamide] | – | – | 100.0 | 9 |
| C[C@@H]1CN(c2ccc3c(=O)c(C(=O)N[C@@H](C4CC4)C(F)(F)F)cn(-c4c(F)cc(F)cc4F)c3n2)C(=O)O1 [Example 444, N-[(1S)-1-Cyclopropyl-2,2,2-trifluoroethyl]-7-[(5R)-5-methyl-2-oxo-1,3-oxazolidin-3-yl]-4-oxo-1-(2,4,6-trifluorophenyl)-1,4-dihydro-1,8-naphthyridine-3-carboxamide] | 51 | 100 | – | – |
| O=C(N[C@@H](C1CC1)C(F)(F)F)c1cn(-c2c(F)cc(F)cc2F)c2nc(N3CC4(CC4)NC3=O)ccc2c1=O [Example 450, N-[(1 S)-1-Cyclopropyl-2,2,2-trifluoroethyl]-4-oxo-7-(5-oxo-4,6-diazaspiro[2.4]hept-6-yl)-1-(2,4,6-trifluorophenyl)-1,4-dihydro-1,8-naphthyridine-3-carboxamide] | 19 | 78.5 | – | – |
| O=C(N[C@@H](C1CC1)C(F)(F)F)c1cn(-c2c(F)cc(F)cc2F)c2nc(N3CCC(F)(CO)CC3)ccc2c1=O [Example 461, N-[(1 S)-1-Cyclopropyl-2,2,2-trifluoroethyl]-7-[4-fluoro-4-(hydroxymethyl)piperidin-1-yl]-4-oxo-1-(2,4,6-trifluorophenyl)-1,4-dihydro-1,8-naphthyridine-3-carboxamide] | 39 | 89 | – | – |
